According to article PMC11339798, “Dual inhibitors of Pseudomonas aeruginosa virulence factors LecA and LasB” (Chemical Science, 2024):

Test system: LecA-FITC binding to human A549 cells
Assay: Inhibition of LecA-FITC adhesion to A549 cells by fluorescence microscopy
Format: cell-based
Settings: 100 μM compound, 10 μM LecA-FITC, 4 °C, 30 min
Protocol: LecA-mediated cell adhesion is crucial for the initial infection and host-cell invasion of P. aeruginosa. Therefore, compounds 1 and 2, a combination of 1+2 and the dual inhibitor 12 were assessed for their ability to inhibit LecA-binding to human A549 cells. 10 μM of LecA-FITC and different concentrations of the respective compounds were incubated at 4 °C for 30 min with confluent A549 cells.
10 min, facilitating the separation of bacterial cells from the supernatant. The latter was filtered through a 0.22 µm sterile filter and stored at –80 °C until further use. […]
CO2. […] The plates were then incubated for an additional 30 min at 37 °C and then, the UV absorbance was measured using a PHERAstar microplate reader. The test samples were read at a wavelength of 550 nm, while the blank was read at 620 nm. At last, the data were statistically analyzed and presented graphically using GraphPad Prism 9 (Figure S4 and S5). […]
have any negative effects. The plate was then incubated at 4 °C for 30 min and wells were washed 5 times with PBS prior to imaging via fluorescence microscopy.
Fluorescence image acquisition, processing, and quantification
Fluorescence images were captured using an inverted fluorescence microscope (Leica DMi8) equipped with a 20x objective (HC PL APO CS2 20x/0.75 IMM UV), an FITC filter cube (EX: […]

## CC(C)CC(S)C(=O)Nc1ccc(S[C@@H]2O[C@H](CO)[C@H](O)[C@H](O)[C@H]2O)cc1 (stereo partly shown) [Compound 12]
  inhibition of binding of LecA-FITC to A549 cells: significantly inhibited the binding of LecA-FITC to A549 cells to the background level
